The record followed here is patent publication US8466177B2 (priority 2007, dated 2013).

In assay [1] the test system is recombinant influenza virus hemagglutinin (A/Wyoming/3/03). In kind it is biochemical. Conditions: 5 μM.
Assay [2] relates to influenza virus (A/Udorn/72, H3N2). It counts as cell-based. Conditions: 10 μM.
The next assay deals with A/Udorn/72 (H3N2). The assay is described as follows: microbe, parasite or virus in culture. It counts as cell-based, influenza virus.
For a further assay, the system named is B/Lee/40 (type B). In words: microbe, parasite or virus in culture. It counts as cell-based. The settings on record: Influenza B virus, MDCK.
A further assay deals with A/PR/8/34 (H1N1). The assay is described as follows: microbe, parasite or virus in culture. In kind it is cell-based. The settings on record: Influenza A virus, MDCK.
For another assay, the system named is A/Aichi/68 (H3N2). The assay is described as follows: microbe, parasite or virus in culture. It counts as cell-based. The settings on record: Influenza A virus, H3N2, MDCK.
The test system of a further assay is A/Udorn/72, H3N2. In kind it is cell-based, influenza virus. Conditions: 50 nM.

Like-named read-outs stand apart in the source and are kept apart here. Some results are limits rather than exact numbers.

As usually defined, the EC50 is the concentration at which the effect is half-maximal. The low end stands for higher potency in that assay, the high end for lower potency in that assay. Regarding `O=C1/C(=C/c2ccc(-c3ccc(F)cc3)o2)SC(=S)N1C1CCCCC1` [A1, (Z)-3-Cyclohexyl-5-{[5-(4-fluorophenyl)furan-2-yl]-methylene}-2-thioxothiazolidin-4-one], the “effect on HA stability (trypsin digestion)” value in assay [1] is given as “destabilization effects”. For the same molecule, in assay [2], the “effect on membrane fusion” value was “inhibitory effects”. Also, the EC50 is 0.4 nM with A/Udorn/72 (H3N2); not above 0.4 nM with A/Udorn/72 (H3N2) (Influenza A virus, H3N2, MDCK); 1 nM with B/Lee/40 (type B); 0.6 nM in the assay with A/PR/8/34 (H1N1); 1 nM with A/Aichi/68 (H3N2). In the assay on A/Udorn/72, H3N2, the “virus yield, cell cultures treated after inoculation” value was “decreased virus yield”.
With `Cc1ccc(-c2ccc(/C=C3\SC(=S)N(C4CCCCCCC4)C3=O)o2)cc1` [A17, (Z)-3-cyclooctyl-5-{[(4-methylphenyl)furan-2-yl]methylene}-2-thioxothiazolidin-4-one], the “virus yield, cell cultures treated after inoculation” value with A/Udorn/72, H3N2 was “decreased virus yield”.
